Among the data in the Deep4Chem optical property database are emission maximum values, retold here.

A short description of this data set: solvent given as SMILES.

Structures are written as SMILES.

On to `CCCCn1c2c(-c3ccc(N(c4ccccc4)c4ccccc4)cc3)cc(C#N)cc2c2cc(C#N)cc(-c3ccc(N(c4ccccc4)c4ccccc4)cc3)c21`, for which the emission maximum was determined as 404 nm (in C1CCCCC1); 449 nm (in C1CCOC1); 476 nm (in CC#N); 419 nm (in CCCCOCCCC); 415 nm (in CCN(CC)CC); 443 nm (in CCOC(C)=O). Besides, the emission maximum is, setting by setting: (in CCOCC) 430 nm; (in CN(C)C=O) 476 nm; (in Cc1ccccc1) 415 nm; (in ClC=C(Cl)Cl) 424 nm; (in ClCCl) 452 nm.

Turning to `CCCCC1C(=O)c2cc(Oc3ccc(C(C)(C)C)cc3)c3c4c(Oc5ccc(C(C)(C)C)cc5)cc5c6c(cc(Oc7ccc(C(C)(C)C)cc7)c(c7c(Oc8ccc(C(C)(C)C)cc8)cc(c2c37)C1=O)c64)C1=C(C5=O)c2ccc3ccccc3[n+]2[B-](F)(F)O1` (centres undefined), the emission maximum (in ClCCl) is listed as 655 nm.

With `O=c1[nH]c(=O)n([C@@H]2O[C@H](CO)[C@@H](O)[C@H]2O)cc1-c1cc2ccccc2s1`, the emission maximum (in C1COCCO1) was 435 nm, the emission maximum (in CC#N) came out at 443 nm, the emission maximum (in CO) turned out to be 446 nm and the emission maximum (in O) worked out at 458 nm.

Regarding `COc1ccc2c(c1)c1c(OC)c3ccccc3c(OC)c1n2C`, the emission maximum turned out to be 431 nm (in C1CCCCC1), 445 nm (in CC#N), 441 nm (in CO) and 443 nm (in ClCCl).

Compound `CCCC1=Cc2nc1ccc1[nH]c(cc1CCC)c1nc(c(OC(C)=O)cc3[nH]c2cc3CCC)C(CCC)=C1` returned an emission maximum (in Cc1ccccc1) of 650 nm.

For the setting “in CC#N”, `C[C@]12SC(=O)C=C1c1nc(-c3ccc(Cl)cc3)[nH]c1C1=CC(=O)S[C@@]12C` gave an emission maximum of 509 nm.

The compound `ClP1(Cl)=N[P@](Cl)(Oc2ccc3ccc4cccc5ccc2c3c45)=N[P@@](Cl)(Oc2ccc3ccc4cccc5ccc2c3c45)=N1` registered an emission maximum (in ClCCl) of 419 nm.

On to `c1ccc2c(c1)-c1ccccc1C21c2ccccc2-c2sc3c(c21)C1(c2ccccc2-c2ccccc21)c1ccccc1-3`, for which the emission maximum (in C1CCOC1) came to 403 nm.

Take `CC(C)Nc1cc2oc3cc(NC(C)C)c(F)cc3c(=O)c2cc1F`: for the setting “in CCO”, the emission maximum is reported as 422 nm.

Turning to `N#Cc1cc(C#Cc2c(F)c(F)nc(F)c2F)c(C#Cc2c(F)c(F)nc(F)c2F)cc1C#N`, the emission maximum (in CC#N) was 370 nm.

With `N#Cc1cc(/C=C/c2ccc(N(c3ccccc3)c3ccccc3)cc2)ccc1/C=C/c1ccc(/C=C/c2ccc(N(c3ccccc3)c3ccccc3)cc2)cc1`, under “in ClCCl”, the emission maximum came out at 560 nm.

For the compound `CC1(C)CC(/C=C/c2ccc(-n3c4ccccc4c4ccccc43)cc2)=CC(=C(C#N)C#N)C1`, the emission maximum is, setting by setting: (in C1CCOC1) 571 nm; (in CC#N) 600 nm; (in CCO) 583 nm; (in CCOC(C)=O) 565 nm; (in ClCCl) 582 nm; (in c1ccccc1) 534 nm.

As for `N#Cc1nn(-c2c(Cl)cccc2Cl)nc1N1CCCC1`, the emission maximum (in CC#N) worked out at 418 nm.

As to `COc1ccc(/C=C/C(F)(F)F)c(N)c1`, for the setting “in C1CCOC1”, the emission maximum is listed as 410 nm.

Turning to `Cc1nc(-c2ccccc2)c2ccccn12`, the emission maximum amounted to 475 nm (in C1CCCCC1); 467 nm (in CC#N); 473 nm (in CO); 485 nm (in ClCCl); 470 nm (in O).

Take `O=C([O-])c1cc2c(ccc3ccccc32)oc1=O`: for the setting “in O”, the emission maximum amounted to 428 nm.

Turning to `F[Si](c1c2ccccc2cc2ccccc12)(c1c2ccccc2cc2ccccc12)c1c2ccccc2cc2ccccc12`, the emission maximum reads like this: (in C1CCOC1) 416 nm; (in ClC(Cl)Cl) 434 nm.

`Cc1cc(-c2nc(-c3ccccc3)nc(-c3ccccc3)n2)ccc1N1c2ccccc2CCc2ccccc21` returned an emission maximum (in Cc1ccccc1) of 481.75 nm.

In the case of `CC1(C)CC(=O)c2cc(F)c(F)cc2N1`, the emission maximum was 435 nm (in CC#N) and 472 nm (in CCO).

Where the note is “in Cc1ccccc1”, `Cc1ccc2c(c1)c1cc(Br)ccc1n2-c1c(C#N)c(-n2c3ccc(Br)cc3c3cc(Br)ccc32)c(-n2c3ccc(Br)cc3c3cc(Br)ccc32)c(C#N)c1-n1c2ccc(Br)cc2c2cc(Br)ccc21` yielded an emission maximum of 546 nm.

For the compound `CSc1ccc2cc(C#N)c3ccc4ccccc4c3c2c1`, the emission maximum (in ClC(Cl)Cl) was 403 nm.

As for `CC1=C(C#Cc2ccc(N(c3ccccc3)c3ccccc3)cc2)C(C)=[N+]2C1=C(c1ccccc1)c1c(C)c(C#Cc3ccc(N(c4ccccc4)c4ccccc4)cc3)c(C)n1[B-]2(F)F`, where the note is “in C1CCOC1”, the emission maximum amounted to 659 nm.

For the compound `Oc1cccc(-c2nc(-c3ccccc3)c(-c3ccccc3)[nH]2)c1`, the emission maximum (in CO) was found to be 390 nm.

Under “in ClCCl”, `CC(C)(C)OC(=O)CN1CCN(c2ccc3c(-c4ccc(I)cc4)c4ccc(=[N+]5CCN(CC(=O)OC(C)(C)C)CC5)cc-4oc3c2)CC1` had an emission maximum of 586 nm.

Compound `Clc1ccc(/C=C(\c2ccccc2)c2nc3ccccc3o2)cc1` returned an emission maximum (in CO) of 420 nm.

As to `CCN(CC)c1ccc(-c2nc3c(c4c2-c2ccc(C#N)cc2CC4)-c2ccc(C#N)cc2CC3)cc1`, the emission maximum by setting is: (in C1CCOC1) 499 nm; (in CC#N) 525 nm; (in CCCCCC) 455 nm; (in CCOC(C)=O) 494 nm; (in CO) 525 nm; (in CS(C)=O) 541 nm. In addition, the emission maximum came out at 474 nm (in Cc1ccccc1) and 493 nm (in ClCCl).

`CN(C)c1ccc(C#Cc2cc(C#Cc3ccc(N(C)C)cc3)c3ccc4c(C#Cc5ccc(C(F)(F)F)cc5)cc(C#Cc5ccc(N(C)C)cc5)c5ccc2c3c54)cc1`: for the setting “in ClCCl”, the emission maximum is 576 nm.

For `c1ccc2c(c1)[nH]c1c3[nH]c4ccccc4c3c3nsnc3c21`, the emission maximum was 493 nm (in CN(C)C=O), 456 nm (in Cc1ccccc1) and 489 nm (in ClCCl).

`Cc1ccc(-c2ccc(/C=C/c3ccc(N(C)C)cc3)cn2)nc1` showed an emission maximum (in CC#N) of 532 nm.

In the case of `CC(C)(C)c1ccc(C2=CC3=C(c4ccccc4)c4cc(-c5ccc(C(C)(C)C)cc5)c(-c5ccc(C(C)(C)C)cc5)n4[B-](F)(F)[N+]3=C2c2ccc(C(C)(C)C)cc2)cc1`, the emission maximum (in C1CCCCC1) worked out at 643 nm; the emission maximum (in C1CCOC1) was 649 nm; the emission maximum (in CC#N) was 647 nm; the emission maximum (in Cc1ccccc1) is reported as 649 nm; the emission maximum (in ClCCl) worked out at 649 nm.

In the case of `OCc1cc2c(cc3ccc4cccc5ccc2c3c45)[nH]1`, for the setting “in CCOC(C)=O”, the emission maximum is 404 nm.

As to `CC(C)(C)c1ccc(-c2c(-c3ccc(-n4c5ccccc5c5ccccc54)cc3)c(C#N)c(-c3ccc(-n4c5ccccc5c5ccccc54)cc3)c(-c3ccc(C(C)(C)C)cc3)c2-c2ccc(C(C)(C)C)cc2)cc1`, the emission maximum (in C1CCOC1) came to 406 nm.

The compound `COc1ccc(C2=C(c3ccc(C)cc3)C(c3ccccc3)=[N+]3C2=Nc2c(-c4ccc(OC)cc4)c(-c4ccc(C)cc4)c(-c4ccccc4)n2[B-]3(F)F)cc1` returned an emission maximum (in Cc1ccccc1) of 709 nm.

`CCN(CC)c1cc2oc3cc(N(CC)CC)c(F)cc3c(=O)c2cc1F` had an emission maximum (in CCO) of 452 nm.

For the setting “in Cc1ccccc1”, `Oc1ccccc1C1=NC2c3cccc4cccc(c34)C2N1c1ccccc1` (centres undefined) came in with an emission maximum of 575 nm.

As to `COc1cc(/C=C/c2ncc(-c3ccncc3)o2)cc(OC)c1OC`, for the setting “in ClCCl”, the emission maximum stood at 463 nm.

With `CCN(CC)c1ccc2c(c1)oc(=O)c1c(=O)oc3c(OC)cccc3c12`, the emission maximum (in CS(C)=O) turned out to be 572 nm and the emission maximum (in ClCCl) is recorded as 530 nm.

In turn, `CC(C)(C)c1cccc2c1oc1nc3oc4ccc(-n5c6ccccc6c6ccccc65)cc4c3cc12` displayed an emission maximum (in ClC(Cl)Cl) of 419 nm.

For `CC(=O)c1nc(-c2ccc(N(C)C)cc2)oc1C`, the emission maximum runs as follows: (in CC#N) 376 nm; (in CCO) 377 nm; (in CCOC(C)=O) 370 nm; (in CCOCC) 368 nm; (in ClCCl) 373 nm.

`CCCC1(CCC)c2cc(C=C(C#Cc3ccccc3)C#Cc3ccccc3)ccc2-c2ccc(C=C(C#Cc3ccccc3)C#Cc3ccccc3)cc21`: the emission maximum (in ClC(Cl)Cl) stood at 473 nm.

Turning to `O=c1c2cc(F)c(N3CCCCC3)cc2sc2cc(N3CCCCC3)c(F)cc12`, the emission maximum (in CCO) worked out at 487 nm.

Take `CCCCn1c(-c2ccc(-c3nnc(-c4ccccc4)o3)cc2)nc2c3ccccc3c3ccccc3c21`: the emission maximum (in ClCCl) was 446 nm.

Turning to `COc1ccc(C#Cc2nc3ccccc3nc2-c2cn(C)c3ccccc23)cc1`, the emission maximum reads like this: (in C1CCOC1) 490 nm; (in CC#N) 518 nm; (in CC(C)=O) 513 nm; (in CC(C)O) 519 nm; (in CCO) 522 nm; (in CCOC(C)=O) 491 nm. The emission maximum was found to be 525 nm (in CO), 468 nm (in Cc1ccccc1) and 506 nm (in ClCCl).

In turn, `c1cc2ccc1-c1ccc(cc1)-c1ccc(s1)-c1ccc(cc1)-c1ccc(cc1)-c1ccc(s1)-c1ccc(cc1)-c1ccc(cc1)-c1ccc-2s1` came in with an emission maximum (in C1CCOC1) of 523 nm.

As to `CCOC(=O)c1ccc(O)c(-c2[nH]c(=O)n3c2-c2ccccc2C3=O)c1`, the emission maximum runs as follows: (in CC#N) 476 nm; (in CO) 490 nm; (in ClCCl) 474 nm.

Turning to `CN(C)c1ccc(/C=C/c2ccc(-c3nc(C#N)c(C#N)n3C)cc2)cc1`, the emission maximum amounted to 437 nm (in C1CCCCC1), 530 nm (in CC#N), 514 nm (in CO) and 500 nm (in ClC(Cl)Cl).

`COc1ccc(C#Cc2nc3ccccc3nc2-c2csc(OC)c2)cc1` returned an emission maximum (in ClCCl) of 508 nm.

Consider `CCOC(=O)c1c2c3c(ccc(F)c3c3cc4c(cc13)[Si](C)(C)O[Si]4(C)C)N(C)C2=O`, for which, where the note is “in CC#N”, the emission maximum turned out to be 411 nm.

On to `CNCCCC1c2ccccc2C=Cc2ccccc21`, for which the emission maximum is reported as 358 nm (in CC#N), 358 nm (in CO) and 360 nm (in O).
